Values joined by “and” are separate entries in the source; they are usually repeats but may differ in a detail not shown here. Equal entries are not always repeated. One block for each molecule: values may come before it.
Legend:
PNPLA3 mRNA [1] = test: qRT-PCR of PNPLA3 mRNA in compound-treated primary human hepatocytes; settings: for PNPLA3 mRNA, TGFβ and BMP pathway inhibitors (in words) / Relative PNPLA3 mRNA expression: primary human hepatocytes; for Relative PNLPA3 mRNA expression in HU4282 cells: Lonza HU4282 hepatocytes; for Relative PNPLA3 mRNA expression in Yecuris RMG cells: Yecuris RMG hepatocytes; for Relative PNPLA3 mRNA levels: 10 μM, human hepatocytes, mean of three replicates ± standard deviation; for Relative PINPLA3 mRNA: hepatocytes
PNPLA3 mRNA [2] = test: qRT-PCR of PNPLA3 mRNA in human primary hepatic stellate cells; assay type: cell-based; settings: for Relative PNPLA3 mRNA expression: stellate cells, Table 37; for Relative PNPLA3 nRNA expression in Stellate cells: 16 hours; for Primary Stellate cells PNPLA3 (fold change in mRNA expression): 3 μM
COL1A1 mRNA = test: qRT-PCR of COL1A1 mRNA in human primary hepatic stellate cells; assay type: cell-based; settings: 3 μM, relative to GAPDH
PCSK9 mRNA = test: qRT-PCR of PCSK9 mRNA in primary hepatocytes; assay type: cell-based, human; settings: donor 4178, 3 μM, relative to GUSB
[3] = 3.3 uM, 16 hours, relative to GUSB
[4] = 10 uM, 16 hours, relative to GUSB
[5] = Syk pathway inhibitors, normalized to B2M

Molecule: COc1cc(-c2cc(-c3cccc(O)c3)cnc2N)cc(OC)c1OC [K02288]
PNPLA3 mRNA, TGFβ and BMP pathway inhibitors (in words) (PNPLA3 mRNA [1]): did not decrease PNPLA3 mRNA in primary human hepatocytes
Relative PNPLA3 mRNA expression (PNPLA3 mRNA [1]; 3.3 uM, Table 35): 1.259 ± 0.3268
Relative PNPLA3 mRNA expression (PNPLA3 mRNA [1]; 10 uM, Table 35): 2.687 ± 0.4146

Molecule: c1ccc2c(-c3cnn4cc(-c5ccc(N6CCNCC6)cc5)cnc34)ccnc2c1 [LDN193189]
Relative PNPLA3 mRNA expression (PNPLA3 mRNA [2]; 0.01 uM): 0.95 ± 0.09
Relative PNPLA3 mRNA expression (PNPLA3 mRNA [2]; 0.1 uM): 0.83 ± 0.12
Relative PNPLA3 mRNA expression (PNPLA3 mRNA [2]; 1 uM): 0.76 ± 0.07
Relative PNPLA3 mRNA expression (PNPLA3 mRNA [2]; 10 uM): 9.25

Molecule: c1cc(-c2cnn3cc(-c4ccc(N5CCNCC5)cc4)cnc23)c2cccnc2c1 [LDN212854, LDN-212854]
Relative PNPLA3 mRNA expression (PNPLA3 mRNA [2]; 0.01 uM): 0.92 ± 0.22
Relative PNPLA3 mRNA expression (PNPLA3 mRNA [2]; 0.1 uM): 1.02 ± 0.16
Relative PNPLA3 mRNA expression (PNPLA3 mRNA [2]; 1 uM): 0.67 ± 0.12
Relative PNPLA3 mRNA expression (PNPLA3 mRNA [2]; 10 uM): 7.43 ± 3.91
PNPLA3 mRNA, TGFβ and BMP pathway inhibitors (in words) (PNPLA3 mRNA [1]): did not decrease PNPLA3 mRNA in primary human hepatocytes
Relative PNPLA3 mRNA expression (PNPLA3 mRNA [1]; 3.3 uM, Table 35): 1.095 ± 0.1332
Relative PNPLA3 mRNA expression (PNPLA3 mRNA [1]; 10 uM, Table 35): 0.9339 ± 0.04093

Molecule: N#CCNC(=O)c1ccc(-c2ccnc(Nc3ccc(N4CCOCC4=O)cc3)n2)cc1 [M21]
PNPLA3 mRNA expression (in words) (PNPLA3 mRNA [2]; stellate cells ST1 and ST8, 16 hours, relative to GAPDH): reduced PNPLA3 mRNA expression, with the most significant decrease after treatment with 3.3 μM M21
Relative PNPLA3 nRNA expression in Stellate cells (PNPLA3 mRNA [2]; stellate cells donor ST1, 3.3 uM, relative to GAPDH): 0.26 ± 0.11
Relative PNPLA3 nRNA expression in Stellate cells (PNPLA3 mRNA [2]; stellate cells donor ST1, 10 uM, relative to GAPDH): 0.54 ± 0.10
Relative PNPLA3 nRNA expression in Stellate cells (PNPLA3 mRNA [2]; stellate cells donor ST8, 3.3 uM, relative to GAPDH): 0.31 ± 0.01
Relative PNPLA3 nRNA expression in Stellate cells (PNPLA3 mRNA [2]; stellate cells donor ST8, 10 uM, relative to GAPDH): 0.49 ± 0.05
Relative PNLPA3 mRNA expression in HU4282 cells (PNPLA3 mRNA [1]; [3]): 0.213 ± 0.028
Relative PNLPA3 mRNA expression in HU4282 cells (PNPLA3 mRNA [1]; [4]): 0.138 ± 0.015
PNPLA3 mRNA expression (in words) (PNPLA3 mRNA [1]; Yecuris RMG and Lonza HU4282 hepatocytes, 16 hours, relative to GUSB): reduced PNPLA3 mRNA expression in a dose dependent manner
Relative PNPLA3 mRNA expression in Yecuris RMG cells (PNPLA3 mRNA [1]; [3]): 0.910 ± 0.068
Relative PNPLA3 mRNA expression in Yecuris RMG cells (PNPLA3 mRNA [1]; [4]): 0.165 ± 0.018

Molecule: CNS(=O)(=O)C[C@H]1CC[C@H](N(C)c2ncnc3[nH]ccc23)CC1 [Oclacitinib]
Relative PNPLA3 mRNA levels (PNPLA3 mRNA [1]; JAK inhibitors, qRT-PCR): 0.56 ± 0.03
PNPLA3 expression (in words) (PNPLA3 mRNA [1]; validation in human hepatocytes from a second donor, qRT-PCR): efficient downregulation of PNPLA3

Molecule: C=CC(=O)N1C[C@H](COc2nc(Nc3cnn(C)c3)nc3[nH]cc(Cl)c23)[C@@H](OC)C1 [PF-06459988]
Relative PINPLA3 mRNA (PNPLA3 mRNA [1]; 1 uM): 0.965
Relative PINPLA3 mRNA (PNPLA3 mRNA [1]; 10 uM): 0.398

Primary Hepatocytes 4178 PCSK9 (fold change in mRNA expression) (PCSK9 mRNA): 1.05
Molecule: COc1ccc(COc2cc3oc(=O)c4cc(C(C)O)ccc4c3cc2OC)cc1 (stereo not shown) [Palomid 529 (P529)]
Primary Stellate cells PNPLA3 (fold change in mRNA expression) (PNPLA3 mRNA [2]; relative to GAPDH): 0.97
Primary Stellate cells COL1A1 (fold change in mRNA expression) (COL1A1 mRNA): 1.10

Molecule: NCCC(O)(P(=O)(O)O)P(=O)(O)O [Pamidronate]
Relative PINPLA3 mRNA (PNPLA3 mRNA [1]; 10 uM): 0.2

Molecule: C/C=C1\NC(=O)[C@H]2CSSCC/C=C/[C@H](CC(=O)N[C@H](C(C)C)C(=O)N2)OC(=O)[C@H](C(C)C)NC1=O [Romidepsin (FK228, Depsipeptide)]
Relative PINPLA3 mRNA (PNPLA3 mRNA [1]; 10 uM): 0.3

Molecule: N#CC[C@H](C1CCCC1)n1cc(-c2ncnc3[nH]ccc23)cn1 [Ruxolitinib]
Relative PNPLA3 mRNA levels (PNPLA3 mRNA [1]; JAK inhibitors, qRT-PCR): 0.89 ± 0.17

Molecule: CN1C/C=C/CCOc2cccc(c2)-c2ccnc(n2)Nc2cccc(c2)C1 [SB1317]
Relative PINPLA3 mRNA (PNPLA3 mRNA [1]; 1 uM): 0.400
Relative PINPLA3 mRNA (PNPLA3 mRNA [1]; 10 uM): 0.413

Molecule: CC1(C)CN(C(=O)c2ccc(-c3cccc4nc(NC(=O)C5CC5)nn34)cc2)C1 [Solcitinib]
Relative PNPLA3 mRNA levels (PNPLA3 mRNA [1]; JAK inhibitors, qRT-PCR): 1.10 ± 0.01

Molecule: Cc1cccc(-c2[nH]c(CNc3ccccc3F)nc2-c2ccc3ncnn3c2)n1 [TEW-7197]
Relative PNPLA3 mRNA expression (PNPLA3 mRNA [1]; 0.04 uM, Table 34): 1.219 ± 0.186
Relative PNPLA3 mRNA expression (PNPLA3 mRNA [1]; 0.12 uM, Table 34): 0.822 ± 0.152
Relative PNPLA3 mRNA expression (PNPLA3 mRNA [1]; 0.37 uM, Table 34): 0.613 ± 0.035
Relative PNPLA3 mRNA expression (PNPLA3 mRNA [1]; 3.3 uM, Table 34): 0.560 ± 0.134

Primary Hepatocytes 4178 PCSK9 (fold change in mRNA expression) (PCSK9 mRNA): 0.69
Molecule: Nc1nc(N)c2nc(-c3cccc(O)c3)c(-c3cccc(O)c3)nc2n1 [TG100-115]
Primary Stellate cells PNPLA3 (fold change in mRNA expression) (PNPLA3 mRNA [2]; relative to GAPDH): 1.07
Primary Stellate cells COL1A1 (fold change in mRNA expression) (COL1A1 mRNA): 1.11

Molecule: CC[C@@H]1CN(C(=O)NCC(F)(F)F)C[C@@H]1c1cnc2cnc3[nH]ccc3n12 [Upadacitinib]
Relative PNPLA3 mRNA levels (PNPLA3 mRNA [1]; JAK inhibitors, qRT-PCR): 0.93 ± 0.15

Molecule: c1cn2cc(-c3ccc4cn[nH]c4c3)nc(Nc3ccc(N4CCOCC4)cc3)c2n1 [entospletinib]
Relative PNPLA3 mRNA levels (PNPLA3 mRNA [1]; [5]): 0.67 ± 0.05

Molecule: COC(=O)C1=C(C#N)NC(C)=C(C(=O)OC(C)C)C1c1cccc([N+](=O)[O-])c1 (stereo not shown) [nilvadipine]
Relative PNPLA3 mRNA levels (PNPLA3 mRNA [1]; [5]): 0.61 ± 0.08

Molecule: TGFB1
Relative PNPLA3 mRNA expression (PNPLA3 mRNA [2]; 0.001 ug/ML): 0.93 ± 0.11 and 1.50 ± 0.17
Relative PNPLA3 mRNA expression (PNPLA3 mRNA [2]; 0.01 ug/ML): 2.35 ± 0.39 and 1.40 ± 0.10

Reference: patent publication US20220107328A1, “METHODS OF TREATING LIVER DISEASES” (Camp4 Therapeutics Corporation, priority 2018, published 2022)
